Measurements published in patent US9693554B2, “Plant growth accelerator” (COSMO OIL CO., LTD., priority 2013, dated 2017).

What was measured:
Format in all cases: in vivo
[1] = tested on: Radish; assay: Growth accelerating effect on radish (pot grown); conditions: 200 L per 10 a, applied 15 and 21 days after seeding, measured 28 days after seeding
Procedure: (§1) Radish was seeded in a pot and grown. The soil used was a sterilized compost containing fertilizer components (180 mg/L of nitrogen, 120 mg/L of phosphoric acid, 220 mg/L of potassium). The plants were set at 4 plants/pot and 4 pots/area. 15 days after and 21 days after seeding, 200 L per 10 a of aqueous solutions containing 0.06 ppm or 0.6 ppm of 5-amino-4-hydroxypentanoic acid was applied. 28 days after seeding, the fresh weight of the edible part was measured.

[2] = tested on: Broccoli; assay: Growth accelerating effect on broccoli (pot grown); conditions: 0.6 ppm
Procedure: Commercial young plants were settled in a pot and grown. The soil used was a sterilized compost containing fertilizer components (180 mg/L of nitrogen, 120 mg/L of phosphoric acid, 220 mg/L of potassium). The plants were set at 1 plant/pot and 4 pots/area. Every week (2 weeks through 10 weeks) after settling, 200 L per 10 a of an aqueous solution containing 0.6 ppm of 5-amino-4-hydroxypentanoic acid was applied. 11 weeks after settling, the fresh weight of the edible part was measured.

[3] = tested on: Komatsuna turnip green; assay: Growth accelerating effect on Komatsuna turnip green (field grown); conditions: 0.06 ppm
Procedure: Komatsuna turnip green was seeded and grown at a field. The soil used was red clay. The plants were set at 40 to 52 plants/section and 2 to 3 sections/area. A coated fertilizer (containing 13% nitrogen, 11% phosphoric acid and 13% potassium) as a basal fertilizer was applied so that nitrogen was 50 kg per 10 a. 22 days after seeding, 1000 L per 10 a of an aqueous solution containing 0.06 ppm of 5-amino-4-hydroxypentanoic acid was applied twice. 42 days after seeding, the fresh weight of the above-ground part was measured.

[4] = tested on: Garland chrysanthemum; assay: Growth accelerating effect on garland chrysanthemum (pot grown); conditions: 200 L per 10 a, applied 4, 5, 6 and 7 weeks after seeding, measured 8 weeks after seeding
Procedure: as §1, with “Garland chrysanthemum” for “Radish”, “4, 5, 6” for “15 days after”, “7 weeks” for “21 days”, “8 weeks” for “28 days”, “above-ground” for “edible”

[5] = tested on: Barley; assay: Growth accelerating effect on barley (pot grown); conditions: 200 L per 10 a, applied 22 days after seeding, measured 35 days after seeding
Procedure: Barley was seeded in a pot and grown. The soil used was black soil. The plants were set at 4 plants/pot and 4 to 6 pots/area. A chemical fertilizer (containing 8% of nitrogen, phosphoric acid and potassium respectively) as a basal fertilizer was applied so that each of nitrogen, phosphoric acid and potassium was 5 kg per 10 a. 22 days after seeding, 200 L per 10 a of aqueous solutions containing 0.006 ppm, 0.06 ppm or 0.6 ppm, of 5-amino-4-hydroxypentanoic acid was applied. 35 days after seeding, the plant height, tillering and dry weight of the above-ground part were measured.

Structure (SMILES): NCC(O)CCC(=O)O (centres unmarked) [5-amino-4-hydroxypentanoic acid]
- Fresh weight of edible part (average) ([1]; 0.06 ppm): 2.26 g
- Fresh weight of edible part (average) ([1]; 0.6 ppm): 2.54 g
- Increase of fresh weight of the edible part compared with the control area ([2]; 11 weeks after settling): 6%
- Fresh weight of edible part (average) ([2]; 200 L per 10 a, applied every week (2 through 10 weeks) after settling, measured 11 weeks after settling): 39.2 g
- Increase of fresh weight of the above-ground part compared with the control area ([3]; 42 days after seeding): 19%
- Fresh weight of above-ground part (average) ([3]; field, 1000 L per 10 a, applied twice, 22 days after seeding, measured 42 days after seeding): 40.6 g
- Fresh weight of above-ground part (average) ([4]; 0.06 ppm): 25.5 g
- Fresh weight of above-ground part (average) ([4]; 0.6 ppm): 24.8 g
- Plant length (average) ([5]; 0.006 ppm aqueous solution): 19.4 cm
- Dry weight of above-ground part (average) ([5]; 0.006 ppm): 103 mg
- Tillering (average) ([5]; 0.006 ppm): 3.50
- Plant length (average) ([5]; 0.06 ppm aqueous solution): 20.1 cm
- Dry weight of above-ground part (average) ([5]; 0.06 ppm): 103 mg
- Tillering (average) ([5]; 0.06 ppm): 3.53
- Plant length (average) ([5]; 0.6 ppm aqueous solution): 20.2 cm
- Dry weight of above-ground part (average) ([5]; 0.6 ppm): 112 mg
- Tillering (average) ([5]; 0.6 ppm): 3.79
